Molecules are shown by their SMILES. pIC50: −log10 of the molar value. Like-named read-outs stand apart in the source and are kept apart here.

In the assay the test system is Onchocerca gutturosa Adult Male Worms. The assay is described as follows: Onchocerciasis in vitro screening model, worm motility score. The assay is classed as cell-based. The conditions noted are these: read-out: O. gutturosa activity level (IC50 or MED).
The mark [1] stands for this setting: in vitro, Onchocerca gutturosa adult male worms, class A/B/C.
Setting [2] is: Onchocerca gutturosa, Table 1 O. gutturosa, levels A/B/C, motility or MTT readout not specified.

In the case of `COC(=O)c1cccnc1Nc1nc(-c2ccc(OC(C)C)cn2)ns1` [Compound 276, methyl 2-(3-(5-isopropoxy-pyridin-2-yl)-1,2,4-thiadiazol-5-ylamino) nicotinate], under setting [1], the pIC50 (in general, −log10 of the IC50, conventionally taken in molar units) was 5.30 to 6.30.
In the case of `Cc1cccnc1Nc1nc(-c2ncc(OC3CC3)cc2C(F)(F)F)ns1` [Compound 93, 3-(5-cyclo-propoxy-3-(trifluoromethyl)pyridin-2-yl)-N-(3-methyl-pyridin-2-yl)-1,2,4-thiadiazol-5-amine], under setting [2], the pIC50 was 5.30 to 6.30.
Take `Cc1cccnc1Nc1nc(-c2ccc(C#N)cn2)ns1` [Compound 278, 6-(5-(3-methylpyridin-2-ylamino)-1,2,4-thiadiazol-3-yl)nicotinonitrile]: the pIC50 under setting [1] was 5.30 to 6.30.
The same measure, in the same setting: with `CC(C)Oc1ccc(-c2nsc(Nc3ncc(C(F)(F)F)cc3C(=O)N3CCCC3)n2)nc1` [Compound 328, (2-(3-(5-isoprop-oxypyridin-2-yl)-1,2,4-thiadiazol-5-ylamino)-5-(trifluoromethyl)pyridin-3-yl)(pyrrolidin-l-yl)methanone] the figure was 5.30 to 6.30.
In the case of `COc1ccc(-c2nsc(Nc3ccc(OC4CCOCC4)cn3)n2)nc1` [Compound 43, 3-(5-methoxy-pyridin-2-yl)-N-(5-(tetrahydro-2H-pyran-4-yloxy)pyridin-2-yl)-1,2,4-thiadiazol-5-amine], the pIC50 under setting [2] was greater than 6.70.
Same read-out and setting: with `COc1ccnc(-c2nnc(Nc3ccc(C(F)(F)F)cn3)s2)c1` [Compound 174, 5-(4-methoxy-pyridin-2-yl)-N-(5-(trifluoromethyl)pyridin-2-yl)-1,3,4-thiadiazol-2-amine] the figure was 6.30 to 6.70; with `CC(C)Oc1cnc(-c2nnc(Nc3ncccc3N(C)C)o2)cc1C(F)(F)F` [Compound 160, N2-(5-(5-isopropoxy-4-(trifluoromethyl)pyridin-2-yl)-1,3,4-oxadiazol-2-yl)-N3,N3-dimethyl-pyridine-2,3-diamine], 5.30 to 6.30.
Same read-out and setting: the same measure for `CC(C)Oc1ccc(-c2nsc(Nc3ncccc3N(C)C)n2)nn1` [Compound 155, N2-(3-(6-isopropoxy-pyridazin-3-yl)-1,2,4-thiadiazol-5-yl)-N3,N3-dimethyl-pyridine-2,3-diamine]: 5.30 to 6.30; for `Cc1cccnc1Nc1nnc(-c2ccc(OC(C)C)cn2)s1` [Compound 64, 5-(5-isopropoxy-pyridin-2-yl)-N-(3-methyl-pyridin-2-yl)-1,3,4-thiadiazol-2-amine]: 5.30 to 6.30.
With `CC(=O)N(C)c1cc(C(F)(F)F)cnc1Nc1n[nH]c(-c2cc3c(cn2)N(C(C)C)CC3)n1` [Compound 295, N-(2-(5-(1-isopropyl-2,3-dihydro-1H-pyrro1o[2,3-c]pyridin-5-yl)-1H-1,2,4-triazol-3-ylamino)-5-(trifluoromethyl)pyridin-3-yl)-N-methylacetamide], the negative logarithm of the IC50 (pIC50) under setting [1] is 5.30 to 6.30.
As for `CN1CCC(Oc2ccc(-c3nsc(Nc4ncccc4C(F)(F)F)n3)nc2)CC1` [Compound 55, 3-(5-(1-methyl-piperidin-4-yloxy)pyridin-2-yl)-N-(3-(trifluoromethyl)pyridin-2-yl)-1,2,4-thiadiazol-5-amine], the pIC50 under setting [2] is greater than 6.70.
Regarding `CC(C)Oc1cnc(-c2nsc(Nc3ncccc3N(C)C)n2)cn1` [Compound 126, N2-(3-(5-iso-propoxypyrazin-2-yl)-1,2,4-thiadiazol-5-yl)-N3,N3-dimethylpyridine-2,3-diamine], the negative-log IC50 (pIC50) under setting [2] is 5.30 to 6.30.
Take `Cc1cc(C#N)cnc1Nc1nc(-c2ccc(OC(C)C)cn2)ns1` [Compound 231, 6-(3-(5-isoprop-oxypyridin-2-yl)-1,2,4-thiadiazol-5-ylamino)-5-methyl-nicotinonitrile]: the negative-log IC50 (pIC50) under setting [1] was 6.30 to 6.70.
For `CNc1cccnc1Nc1nc(-c2ccc(OC3CCN(C4CC4)CC3(F)F)cn2)ns1` (stereo not drawn) [Compound 122, N2-(3-(5-(1-cyclopropyl-3,3-difluoropiperidin-4-yloxy)pyridin-2-yl)-1,2,4-thiadiazol-5-yl)-N3-methyl-pyridine-2,3-diamine], under setting [2], the negative logarithm of the IC50 (pIC50) was 6.30 to 6.70.
`CN(C)c1cccnc1Nc1nc(-c2ccc(OC3CCN(C4CC4)CC3(F)F)cn2)ns1` (stereo not drawn) [Compound 123, N2-(3-(5-(1-cyclopropyl-3,3-difluoro-piperidin-4-yloxy)pyridin-2-yl)-1,2,4-thiadiazol-5-yl)-N3,N3-dimethyl-pyridine-2,3-diamine]: the pIC50 under setting [2] is greater than 6.70.
For the compound `Cc1ccnc(Nc2nc(-c3ncccc3C)ns2)c1` [Compound 238, 3-(3-methyl-pyridin-2-yl)-N-(4-methyl-pyridin-2-yl)-1,2,4-thiadiazol-5-amine], the pIC50 under setting [1] is greater than 6.70.
On to `c1ccc(-c2nsc(Nc3ccc(N4CCCC4)cn3)n2)nc1` [Cmpd 8, 3-(pyridin-2-yl)-N-(5-(pyrrolidin-1-yl)pyridin-2-yl)-1,2,4-thiadiazol-5-amine], for which, under setting [2], the pIC50 is greater than 6.70.
On to `Cc1cccnc1-c1nsc(Nc2ccc(N3CCCC3)cn2)n1` [Compound 51, 3-(3-methyl-pyridin-2-yl)-N-(5-(pyrrolidin-1-yl)pyridin-2-yl)-1,2,4-thiadiazol-5-amine], for which the pIC50 under setting [2] was greater than 6.70.
Turning to `CC(=O)N(C)c1cnc(Nc2nc(-c3ccc(OC(C)C)cn3)ns2)c(C)c1` [Compound 297, N-(6-(3-(5-isopropoxypyridin-2-yl)-1,2,4-thiadiazol-5-ylamino)-5-methylpyridin-3-yl)-N-methylacetamide], the pIC50 under setting [1] was 6.30 to 6.70.
Regarding `CC(C)Oc1cnc(-c2nsc(Nc3ncc(C(C)C)cc3C(F)(F)F)n2)cc1C(=O)N(C)C` [Compound 219, 5-isopropoxy-2-(5-(5-isopropyl-3-(trifluoromethyl)pyridin-2-ylamino)-1,2,4-thiadiazol-3-yl)-N,N-dimethyliso-nicotinamide], the pIC50 under setting [1] was 6.30 to 6.70.
Same read-out and setting: the same measure for `COc1ccc(Nc2nnc(-c3cc(OC4CCCCC4)ccn3)s2)nc1` [Compound 233, 5-(4-(cyclo-hexyloxy)pyridin-2-y1)-N-(5-methoxypyridin-2-yl)-1,3,4-thiadiazol-2-amine]: greater than 6.70.
`CN1CCC(Oc2ccc(-c3nsc(Nc4cc(C(F)(F)F)ccn4)n3)nc2)CC1` [Compound 34, 3-(5-(1-methyl-piperidin-4-yloxy)pyridin-2-yl)-N-(4-(trifluoro-methyl)pyridin-2-yl)-1,2,4-thiadiazol-5-amine]: the pIC50 under setting [2] was 5.30 to 6.30.
`CC(C)c1cnc(Nc2nc(-c3cc4c(cn3)OC(C)(C)C4)ns2)cc1C(F)(F)F` [Compound 296, 3-(2,2-dimethyl-2,3-dihydrofuro[2,3-c]pyridin-5-yl)-N-(5-isopropyl-4-(trifluoromethyl)pyridin-2-yl)-1,2,4-thiadiazol-5-amine]: the pIC50 under setting [1] was greater than 6.70.
Still for that read-out and setting: with `CC(=O)N(C)c1nccnc1Nc1nc(-c2ccc(OC(C)C)cn2)ns1` [Compound 313, N-(3-(3-(5-isopropoxypyridin-2-yl)-1,2,4-thiadiazol-5-ylamino)pyrazin-2-yl)-N-methylacetamide] the figure was 5.30 to 6.30; with `CC(=O)N(C)c1cccnc1Nc1nc(-c2ccc(OC3CCN(C(C)C)CC3(F)F)cn2)ns1` (stereo not drawn) [Compound 203, N-(2-(3-(5-(3,3-difluoro-1-isopropyl-piperidin-4-yloxy)pyridin-2-yl)-1,2,4-thiadiazol-5-ylamino)pyridin-3-yl)-N-methylacetamide], 5.30 to 6.30.
Turning to `CNc1cccnc1Nc1nc(-c2cc(C)ccn2)ns1` [Compound 23, N3-methyl-N2-(3-(4-methylpyridin-2-yl)-1,2,4-thiadiazol-5-yl) pyridine-2,3-diamine], the pIC50 under setting [2] was greater than 6.70.
As to `CC(C)Oc1cnc(-c2nsc(Nc3ncccc3C(=O)N(C)C)n2)cc1C(F)(F)F` [Compound 225, 2-(3-(5-isopropoxy-4-(trifluoromethyl)pyridin-2-yl)-1,2,4-thiadiazol-5-ylamino)-N,N-dimethyl-nicotinamide], the pIC50 under setting [1] is 5.30 to 6.30.
On the same count and under the same terms, with `CC(=O)N(C)c1cccnc1Nc1nc(-c2cc(C#N)c(OC(C)C)cn2)ns1` [Compound 226, N-(2-(3-(4-cyano-5-isopropoxy-pyridin-2-yl)-1,2,4-thiadiazol-5-ylamino)pyridin-3-yl)-N-methyl-acetamide] the figure was 5.30 to 6.30.
Regarding `Fc1cccnc1-c1noc(Nc2cc(C(F)(F)F)ccn2)n1` [Compound 27, 3-(3-fluoropyridin-2-yl)-N-(4-(trifluoro-methyl)pyridin-2-yl)-1,2,4-oxadiazol-5-amine], the pIC50 under setting [2] is greater than 6.70.
Same read-out and setting: with `COC(=O)c1cc(-c2nsc(Nc3ncccc3C(C)C)n2)ncc1OC(C)C` [Compound 197, methyl 5-isopropoxy-2-(5-(3-isopropylpyridin-2-ylamino)-1,2,4-thiadiazol-3-yl)isonicotinate] the figure was greater than 6.70.
With `CC(C)c1cnc(Nc2nc(-c3cc4c(cn3)N(C)CC4)ns2)c(C(F)(F)F)c1` [Compound 323, N-(5-isopropyl-3-(trifluoromethyl)pyridin-2-yl)-3-(1-methyl-2,3-dihydro-1H-pyrrolo[2,3-c]pyridin-5-yl)-1,2,4-thiadiazol-5-amine], under setting [1], the pIC50 was greater than 6.70.
Take `Cc1cccnc1Nc1nc(-c2ccc(OC3CCN(C)CC3)cn2)no1` [Compound 21, 3-(5-(1-methyl-piperidin-4-yloxy)pyridin-2-yl)-N-(3-methylpyridin-2-yl)-1,2,4-oxadiazol-5-amine]: the pIC50 under setting [2] is greater than 6.70.
On to `COc1ccc(-c2nnc(Nc3cc(OC(C)C)ccn3)s2)nc1` [Compound 243, N-(4-isoprop-oxypyridin-2-yl)-5-(5-methoxy-pyridin-2-yl)-1,3,4-thiadiazol-2-amine], for which the pIC50 under setting [1] is 5.30 to 6.30.
With `COc1ccc(-c2nsc(Nc3ccc(C(C)C)cn3)n2)nc1` [Compound 185, N-(5-isopropyl-pyridin-2-yl)-3-(5-methoxy-pyridin-2-yl)-1,2,4-thiadiazol-5-amine], the pIC50 under setting [2] is 6.30 to 6.70.
Same read-out and setting: the same measure for `Cc1cccnc1Nc1nc(-c2cc(C(=O)N(C)C)c(OC(C)C)cn2)ns1` [Compound 192, 5-isopropoxy-N,N-dimethyl-2-(5-(3-methylpyridin-2-ylamino)-1,2,4-thiadiazol-3-yl)isonicotin-amide]: 5.30 to 6.30.
The same measure, in the same setting: with `Cc1cccnc1-c1noc(Nc2ccc(N3CCCC3)cn2)n1` [Compound 42, 3-(3-methyl-pyridin-2-yl)-N-(5-(pyrrolidin-1-yl)pyridin-2-yl)-1,2,4-oxadiazol-5-amine] the figure was greater than 6.70.

(Values after patent publication US11505548B2, “Heterocyclic compounds and their use for treatment of helminthic infections and diseases” (Celgene Corporation, priority 2019, dated 2022).)
